pEC50: −log10 of the molar value. Read-outs that look alike come from different tables or passages of the source.
Test system: HCV 1b genotype
Test: HCV Replicon assay (HCV-neo replicon cells, wild-type)
Type: cell-based
Conditions: Hepatitis C virus, HCV 1b genotype replicon; for pEC50: class symbols, read-out: EC50 Range; for EC50: read-out: EC50
Method: An HCV Replicon assay was utilized in the present disclosure, and was prepared, conducted and validated as described in commonly owned PCT/US2006/022197 and in O'Boyle et. al. Antimicrob Agents Chemother. 2005 Apr;49(4):1346-53. Assay methods incorporating luciferase reporters have also been used as described (Apath.com).
HCV-neo replicon cells and replicon cells containing mutations in the NS5A region were used to test the currently described family of compounds. The compounds were determined to have more than 10-fold less inhibitory activity on cells containing mutations than wild-type cells. Thus, the compounds of the present disclosure can be effective in inhibiting the function of the HCV NS5A protein and are understood to be as effective in combinations as previously described in application PCT/US2006/022197 and commonly owned WO/O4014852. Further, the compounds of the present disclosure can be effective against the HCV 1b genotype. It should also be understood that the compounds of the present disclosure can inhibit multiple genotypes of HCV. […] In one embodiment, compounds of the present disclosure are inhibitory versus 1a, 1b, 2a, 2b, 3a, 4a, and 5a genotypes.

Row | Compound | pEC50 | EC50 (values in nM) [nM] | EC50 (values given in pM) [nM]
1 | COC(=O)N[C@H](C(=O)N1CCC[C@H]1c1nc[nH]c1-c1cccc(C#Cc2ccc3[nH]c([C@@H]4CCCN4C(=O)[C@H](NC(=O)OC)C(C)C)nc3c2)c1)C(C)C (stereo in doubt) [J.281, methyl ((1S)-1-(((2S)-2-(5-(3-((2-((2S)-1-((2R)-2-((methoxycarbonyl)amino)-3-methylbutanoyl)-2-pyrrolidinyl)-1H-benzimidazol-5-yl)ethynyl)phenyl)-1H-imidazol-4-yl)-1-pyrrolidinyl)carbonyl)-2-methylpropyl)carbamate] | 7.00 to 8.34 | 7 | 
2 | Cc1ccc(-c2ncc(-c3ccc4[nH]c([C@@H]5CCCN5C(=O)[C@@H](c5ccccc5)N(C)C)nc4c3)o2)cc1NC(=O)[C@@H]1CCCN1C(=O)CN(C)C [J.52a, N,N-dimethylglycyl-N-(5-(5-(2-((2S)-1-((2R)-2-(dimethylamino)-2-phenylacetyl)-2-pyrrolidinyl)-1H-benzimidazol-5-yl)-1,3-oxazol-2-yl)-2-methylphenyl)-L-prolinamide] | 7.00 to 8.34 |  | 
3 | O=C(Nc1ccc(-c2ncc(-c3ccc4[nH]c([C@@H]5CCCN5C(=O)[C@H](O)c5ccccc5)nc4c3)o2)cc1F)[C@@H]1CCCN1C(=O)[C@H](O)c1ccccc1 [J.51, N-(2-fluoro-4-(5-(2-((2S)-1-((2R)-2-hydroxy-2-phenylacetyl)-2-pyrrolidinyl)-1H-benzimidazol-5-yl)-1,3-oxazol-2-yl)phenyl)-1-((2R)-2-hydroxy-2-phenylacetyl)-L-prolinamide] | 7.00 to 8.34 |  | 
4 | O=C(Nc1ccc(CCc2ccc3nc([C@@H]4CCCN4C(=O)Cc4ccccc4)[nH]c3c2)cc1)[C@@H]1CCCN1C(=O)Cc1ccccc1 [M.11, (S)-1-(2-phenylacetyl)-N-(4-(2-(2-((S)-1-(2-phenylacetyl)pyrrolidin-2-yl)-1H-benzo [d]imidazol-6-yl)ethyl)phenyl)pyrrolidine-2-carboxamide] | 7.00 to 8.34 |  | 
5 | CC(=O)N1CCC[C@H]1C(=O)Nc1ccc(C#Cc2ccc3nc([C@@H]4CCCN4C(=O)Cc4ccccc4)[nH]c3c2)cc1 [M.8, (S)-1-acetyl-N-(4-((2-((S)-1-(2-phenylacetyl)pyrrolidin-2-yl)-1H-benzo[d]imidazol-6-yl)ethynyl)phenyl)pyrrolidine-2-carboxamide] | 7.00 to 8.34 | 46.4 | 
6 | O=C(Nc1ccc(C#Cc2ccc3nc([C@@H]4CCCN4C(=O)Cc4ccccc4)[nH]c3c2)cc1)[C@@H]1CCCN1C(=O)Cc1ccccc1 [M.9, (S)-1-(2-phenylacetyl)-N-(4-((2-((S)-1-(2-phenylacetyl)pyrrolidin-2-yl)-1H-benzo [d]imidazol-6-yl)ethynyl)phenyl)pyrrolidine-2-carboxamide] | 7.00 to 8.34 |  | 
7 | COC(=O)N[C@@H](C(=O)N1CCC[C@H]1c1nc(C#Cc2ccc(-c3ccc4[nH]c([C@@H]5CCCN5C(=O)[C@H](NC(=O)OC)C(C)C)nc4c3)cc2)c[nH]1)C(C)C [JB.8.1, methyl ((1R)-1-(((2S)-2-(4-((4-(2-((2S)-1-((2R)-2-((methoxycarbonyl)amino)-3-methylbutanoyl)-2-pyrrolidinyl)-1H-benzimidazol-5-yl)phenyl)ethynyl)-1H-imidazol-2-yl)-1-pyrrolidinyl)carbonyl)-2-methylpropyl)carbamate] | 6.00 to 7.00 |  | 
8 | COC(=O)N[C@H](C(=O)N1CCC[C@H]1c1nc2c(F)cc(C#Cc3ccc4c(ccc5nc([C@@H]6CCCN6C(=O)[C@@H](NC(=O)OC)C(C)C)[nH]c54)c3)cc2[nH]1)C(C)C [J.28h, methyl ((1S)-1-(((2S)-2-(4-fluoro-6-((2-((2S)-1-((2S)-2-((methoxycarbonyl)amino)-3-methylbutanoyl)-2-pyrrolidinyl)-1H-naphtho [1,2-d]imidazol-7-yl)ethynyl)-1H-benzimidazol-2-yl)-1-pyrrolidinyl)carbonyl)-2-methylpropyl)carbamate] |  |  | 0.12

— patent EP2601188B1, “HEPATITIS C VIRUS INHIBITORS” (Bristol-Myers Squibb Company, priority 2010, dated 2012)
